{"source": "patent US6673937B2", "about": "“Syntheses and methods of use of new antimitotic agents” (The University of Pittsburgh, priority 2000, dated 2004)", "key": {"bovine tubulin": {"system": "bovine tubulin", "assay": "Tubulin hypernucleation without GTP", "assay_type": "biochemical", "conditions": "in vitro", "method": "The inventors examined the ability of SR-7 to alter tubulin polymerization or depolymerization in vitro. FIG. 28, Panel A. Compounds (predissolved in DMSO) were preincubated with tubulin containing monosodium glutamate at 30 ° C. for 15 min. Samples were cooled to 0 ° C. and GTP was added. Samples were placed in a temperature-controlled multi-cuvette holder of a spectrophotometer held at 0 ° C. Baselines were established and temperature was rapidly raised to 30 ° C. Turbidity development in the cuvettes was measured at 350 nm. FIG. 28, Panel B. Compounds were added to the tubulin plus monosodium glutamate mixture at 0 ° C., placed in the spectrophotometer and temperature was raised to 30 ° C. Addition of 0.4 mM GTP to isolated bovine brain tubulin produced robust polymerization that began to plateau approximately 20 min after microtubule assembly commenced (Panel A)."}, "Bcl-2": {"system": "Bcl-2", "assay": "Bcl-2 phosphorylation immunoblot in MCF-7 cells", "assay_type": "cell-based, human", "conditions": "3 or 10 μM", "from_the_text": "Attempts to determine the phosphorylation status of Bcl-2 in tsFT210 cells using two different antibodies were unsuccessful due to the antibodies' inability to detect mouse Bcl-2 or the lack of specificity. Therefore, phosphorylated and non-phosphorylated Bcl-2 was detected in lysates from human MCF-7 cells (American Type Culture Collection, Manassas, Va.) treated with microtubule perturbing agents. Equal amounts of protein were separated by electrophoresis on 15% SDS-PAGE followed by immunoblotting with an antihuman Bcl-2 antibody (sc-509, Santa Cruz Biotechnology). Positive antibody reactions were visualized using peroxidase-conjugated secondary antibodies (Jackson ImmunoResearch, West Grove, Pa.) and an enhanced chemiluminescence detection system (Renaissance, NEN, Boston, Mass.) according to manufacturer's instructions.\nAll known microtubule disrupting compounds cause hyperphosphorylation of the antiapoptotic protein Bcl-2 (Haldar S, Jena N and Croce CM (1995) Inactivation of bcl-2 by phospliorylation. Proc Natl Acad Sci USA 92:4507-4511 and Basu A and Haldar S (1998) Microtubule-damaging drugs trigger bcl2 phosphorylation-requirement of phosphorylation on both serine-70 and serine-87 residues of bcl2 protein. Intl J Oncol 13:659-664). Therefore, the phosphorylation status of Bcl-2 in cells treated with various compounds including SR-7 was examined and the results are illustrated in FIG. 29. Proteins from lysates of MCF-7 cells treated with 0.5 μM paclitaxel, 1 μM nocodozole, 1,μM vincristine and, 3 or 10 μM SR-7 were separated by electrophoresis on 15% SDS-PAGE followed by immunoblotting with an antibody to Bcl-2. The phosphorylated form of Bcl-2 (P) appeared as the upper bands and the underphosphorylated form (U) was the lower band."}, "[1]": {"system": "1 A9, 1 A9/PTX10 and 1 A9/PTX22 cells", "assay": "Growth inhibition of paclitaxel-sensitive and -resistant 1A9 cells", "assay_type": "cell-based, human", "method": "Two compounds, 24 referred to herein as SR-4 and 27 referred to herein as SR-7, were examined in greater detail as to their effects on biological activity. The proliferation of MCF-7, MDA-MB-231 and SV40 transformed mouse embryonic fibroblasts was measured by a previously described colorimetric assay (Wipf P, Jung J-K, Rodriguez S, Lazo JS Synthesis and biological evaluation of Deoxypreussomerin A and Palmarumycin CP 1 and related naphthoquinone spiroketals. Tetrahedron 57:283-296, 2001 and Vogt A, Rice RL, Settineri CE, Yokokawa F, Yokokawa S, Wipf P and Lazo JS (1998) Disruption of insulin-like growth factor-I signaling and down-regulation of Cdc2 by SC-ααδ9, a novel small molecule antisignaling agent identified in a targeted array library. J Pharmacol Exptl Therap 287:806-813.). Briefly, the inventors seeded 4,000-6,000 cells per well in microtiter plates. […] Plates were incubated for 3 hours in the dark and total cell number was determined by spectrophotometrically at 540 nm as previously described (Vogt A, Rice RL, Settineri CE, Yokokawa F, Yokokawa S, Wipf P and Lazo JS (1998) Disruption of insulin-like growth factor-1 signaling and down-regulation of Cdc2 by SC-ααδ9, a novel small molecule antisignaling agent identified in a targeted array library. J Pharmacol Exptl Therap 287:806-813.). […]"}}}
{"smiles": "O=C1C=CC2(Oc3cccc4cccc(c34)O2)c2cccc(OCc3ccco3)c21", "note": "[SR-7, 8-(furan-2-ylmethoxy)-1-oxo-1,4-dihydronaphthalene-4-spiro-2′-naphto [1″,8″-de][1′,3′] dioxin]", "values": [{"measurement": "hypernucleation of tubulin", "setting": "bovine tubulin", "result": "failed in vitro to hypernucleate bovine tubulin"}, {"measurement": "Bcl-2 phosphorylation", "setting": "Bcl-2", "result": "failed to generate significant hyperphosphorylated Bcl-2"}, {"measurement": "inhibition of paclitaxel-sensitive and -resistant cell growth", "setting": "[1]", "result": "almost equal inhibition"}]}
